Reference: PubChem BioAssay (NCI)
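In this assay, cells in 96-well plates receive the compound at five concentrations for 48 hours. Endpoints are linearly interpolated between the surrounding concentrations. TGI: total growth inhibition.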

Legend:
Test in all cases: NCI anticancer screen, dose series, 48 h
SF-539 CNS = tested on: SF-539 CNS
MCF7 breast = tested on: MCF7 breast
KM12 colon = tested on: KM12 colon
HCC-2998 colon = tested on: HCC-2998 colon
SK-MEL-5 melanoma = tested on: SK-MEL-5 melanoma
SNB-19 CNS = tested on: SNB-19 CNS
NCI/ADR-RES ovarian = tested on: NCI/ADR-RES ovarian
UACC-257 melanoma = tested on: UACC-257 melanoma
HCT-116 colon = tested on: HCT-116 colon
NCI-H226 lung = tested on: NCI-H226 lung
MALME-3M melanoma = tested on: MALME-3M melanoma
SK-MEL-28 melanoma = tested on: SK-MEL-28 melanoma
HOP-62 NSCLC = tested on: HOP-62 NSCLC
RXF 393 renal = tested on: RXF 393 renal
NCI-H460 lung = tested on: NCI-H460 lung
DU-145 prostate = tested on: DU-145 prostate
PC-3 prostate = tested on: PC-3 prostate
OVCAR-5 ovarian = tested on: OVCAR-5 ovarian
HL-60(TB) leukemia = tested on: HL-60(TB) leukemia

SMILES	TGI (SF-539 CNS) [µM]	TGI (MCF7 breast) [µM]	TGI (KM12 colon) [µM]	TGI (HCC-2998 colon) [µM]	TGI (SK-MEL-5 melanoma) [µM]	TGI (SNB-19 CNS) [µM]	TGI (NCI/ADR-RES ovarian) [µM]	TGI (UACC-257 melanoma) [µM]	TGI (HCT-116 colon) [µM]	TGI (NCI-H226 lung) [µM]	TGI (MALME-3M melanoma) [µM]	TGI (SK-MEL-28 melanoma) [µM]	TGI (HOP-62 NSCLC) [µM]	TGI (RXF 393 renal) [µM]	TGI (NCI-H460 lung) [µM]	TGI (DU-145 prostate) [µM]	TGI (PC-3 prostate) [µM]	TGI (OVCAR-5 ovarian) [µM]	TGI (HL-60(TB) leukemia) [µM]
COC(=O)c1cn(CCCCO)nn1	> 100	> 100	> 100	> 100	> 100	> 100	> 100	> 100	> 100	> 100	> 100	> 100	> 100	> 100	> 100	> 100	> 100	–	–
N#CC1C(=O)NC2=C(CCOc3c2ccc2ccccc32)C1c1ccc(F)cc1 (stereo not drawn)	> 100	> 100	> 100	59.9	80.8	52.7	43.8	> 100	27	–	79	–	33.6	36	> 100	> 100	54.8	71.9	> 100
O=C(Nc1ccc(N2C(=O)CSC2c2cccs2)cc1)c1ccc(N2C(=O)CSC2c2cccs2)cc1 (stereo not drawn)	> 100	> 100	> 100	> 100	> 100	> 100	> 100	> 100	> 100	–	> 100	> 100	> 100	> 100	> 100	> 100	> 100	> 100	–
Cc1ccc(S(=O)(=O)c2ccsc2NC(=O)c2ccccc2)cc1	> 100	> 100	> 100	> 100	> 100	> 100	> 100	> 100	> 100	> 100	> 100	> 100	45	–	> 100	> 100	> 100	> 100	–
O=C1c2ccccc2-n2c1nc1cc(Cl)ccc1c2=O	> 100	> 100	> 100	> 100	76.4	> 100	> 100	29.1	> 100	> 100	21.9	–	> 100	> 100	> 100	> 100	> 100	> 100	–
Nc1nc(NCC2(CO)CC(CCc3ccccc3)C2)cc(=O)[nH]1 (stereo not drawn)	–	> 100	> 100	> 100	> 100	> 100	> 100	> 100	> 100	> 100	> 100	> 100	> 100	> 100	> 100	> 100	> 100	> 100	> 100
CC1=C2c3ccccc3N(S(=O)(=O)c3ccccc3)[C@H]2[C@H](C(=O)N2C3CC4CC[C@@]3(CS2(=O)=O)C4(C)C)CC1 (stereo partly drawn)	> 100	75.4	> 100	–	91.3	> 100	> 100	> 100	> 100	> 100	> 100	> 100	> 100	14.7	> 100	> 100	> 100	> 100	21.9
CCCCC1=CC1(C#N)[N+](=O)[O-] (stereo not drawn)	> 100	> 100	> 100	> 100	> 100	> 100	> 100	> 100	> 100	> 100	> 100	> 100	> 100	> 100	> 100	> 100	> 100	> 100	–
CCC(C)C(NC(=O)c1c2ccccc2nc2ccccc12)C(=O)O (stereo not drawn)	> 100	> 100	> 100	> 100	> 100	> 100	> 100	> 100	> 100	> 100	> 100	> 100	> 100	–	> 100	> 100	> 100	> 100	–
O=C1CSC(c2ccccc2[N+](=O)[O-])N1c1ccc(-n2c(-c3ccccc3)nc3ccccc3c2=O)cc1 (stereo not drawn)	> 100	> 100	> 100	> 100	> 100	> 100	> 100	> 100	> 100	89.2	> 100	> 100	54.1	–	> 100	> 100	> 100	> 100	> 100
CCCCCCCCCCCCCCCCNc1ccc2c(c1)OCCOCCOCCOCCO2	9.43	13.2	4.84	–	5.22	14.2	6.4	6.91	11.3	7.07	13.6	18.8	7.28	5.58	10.7	15.3	6.43	14.2	6.16
COCN1C(=O)[C@@H]2CCCN2C(=O)c2cc(Cl)ccc21	–	> 100	> 100	> 100	> 100	> 100	> 100	> 100	> 100	–	> 100	> 100	> 100	> 100	> 100	> 100	> 100	> 100	–
COc1cc(/C=C2/C(=O)N=C(NC(C)=O)N2C)ccc1OC(C)=O	> 100	> 100	> 100	> 100	> 100	> 100	> 100	> 100	> 100	> 100	–	> 100	> 100	–	> 100	> 100	> 100	> 100	> 100
Cc1ccc(Cc2nn(C)c(=O)n2-n2cccc2)cc1	–	> 100	> 100	> 100	> 100	> 100	> 100	> 100	> 100	> 100	> 100	> 100	> 100	> 100	> 100	> 100	> 100	> 100	–
CCOC(=O)NC(C(C(=O)OCC)C(=O)OCC)(C(F)(F)F)C(F)(F)F	> 100	> 100	> 100	–	> 100	> 100	> 100	> 100	> 100	> 100	> 100	> 100	> 100	> 100	> 100	> 100	> 100	> 100	> 100
CC(=O)OC(C#N)CC(C)(C)/[N+]([O-])=[N+](\[O-])C(C)(C)CC(C#N)OC(C)=O (stereo not drawn)	–	> 100	28.9	31.6	33.9	67.6	79.3	37.8	20.9	55.3	47.4	96.4	36.2	27.4	35	43.8	37.9	95.4	–
CN(C)c1ccc(/C=C2\N=C(c3ccccc3)N(/N=C3\C(=O)Nc4ccccc43)C2=O)cc1	> 100	> 100	> 100	> 100	> 100	> 100	> 100	> 100	> 100	–	> 100	> 100	> 100	> 100	> 100	> 100	> 100	> 100	> 100
O=C1Cc2c(-c3ccccc3)cc(-c3ccc4ccccc4c3)nc2-c2ccccc2N1	> 100	> 100	28.3	> 100	> 100	> 100	> 100	> 100	> 100	> 100	31.9	> 100	> 100	13.1	87.6	> 100	45.5	> 100	–
O=C(/C=C/c1cccs1)c1ccc(Cl)s1	> 100	> 100	44.3	34.7	> 100	47.6	> 100	> 100	32.2	85.1	> 100	59.3	> 100	–	> 100	> 100	> 100	> 100	64.1
CC(C)N(C(=O)c1ccc(NCc2cc(O)ccc2O)cc1)C(C)C	34	87.8	–	–	37.8	58.6	42.9	31.4	29.6	45.3	28.9	45.9	69.4	28.3	34.6	30	52.3	43.8	> 100
O=C(O)c1nc2cc(C(F)(F)F)ccc2[nH]c1=O	> 100	> 100	> 100	> 100	> 100	> 100	> 100	> 100	> 100	> 100	> 100	> 100	> 100	–	> 100	> 100	> 100	> 100	> 100
COC1CC(n2ccc(=O)[nH]c2=O)OC1CO (stereo not drawn)	> 100	> 100	> 100	> 100	> 100	> 100	> 100	> 100	> 100	> 100	> 100	> 100	> 100	> 100	> 100	> 100	> 100	> 100	–
COc1ccc2[nH]cc(CN3CCC(CO)(c4ccccc4)CC3)c2c1	–	37.9	35.4	46.2	27.1	> 100	> 100	37.2	35.8	> 100	62.3	33.3	58.8	> 100	> 100	> 100	> 100	> 100	48.5
CN(C)C(=O)C(F)(F)C(c1ccc(C(F)(F)F)cc1)C1C(=O)N(C)C(=O)N(C)C1=O (stereo not drawn)	–	> 100	> 100	> 100	> 100	> 100	> 100	> 100	> 100	> 100	–	> 100	> 100	> 100	> 100	> 100	> 100	> 100	–
Cc1nc2ccc(S(=O)(=O)Nc3ccccc3Cl)cc2c(=O)n1NC(=O)CNc1ccccc1Cl	> 100	> 100	> 100	> 100	–	> 100	> 100	> 100	> 100	> 100	> 100	> 100	> 100	–	> 100	> 100	> 100	> 100	> 100
COc1cc2c(cc1OC)CN1CCc3ccccc3CC1C2 (stereo not drawn)	> 100	> 100	> 100	> 100	> 100	> 100	> 100	> 100	> 100	> 100	> 100	> 100	> 100	–	> 100	> 100	> 100	> 100	> 100
